Data as given in patent US20260070919A1, “CRYSTAL FORM OF FIVE-MEMBERED AND SIX-MEMBERED HETEROCYCLIC COMPOUND, PREPARATION METHOD THEREFOR, AND USE THEREOF” (BEIJING MAXINOVEL PHARMACEUTICALS CO., LTD., priority 2022, published 2026).

Experiments:
Format in all cases: physicochemical
[1] = Dynamic vapor sorption (DVS); details: for weight gain from 0% RH to 95% RH (moisture absorption): 25° C., weight percentage
Description: (§1) A sample of crystal form I of the compound represented by formula 1 (10 mg) was weighed, and dried for 60 minutes at a temperature of 25° C. and a humidity of 0% RH. The moisture absorption characteristics of the sample were tested as the humidity changed from 0% RH to 95% RH, and the desorption characteristics of the sample were tested as the humidity changed from 95% RH to 0% RH. The humidity change in each step was 5% RH, with an equilibrium criterion of a weight change rate of less than 0.01%/min within 5 minutes and a maximum equilibration time of 2 hours.
as §1, with “II” for “I”
as §1, with “III” for “I”

[2] = Stability test (influencing factors and accelerated conditions; HPLC, appearance, XRPD, DSC)
Description: Appropriate amounts of crystal form II and crystal form III of the compound represented by formula 1 were accurately weighed into 20 mL colorless transparent glass vials, which were placed under corresponding influencing factors (high temperature at 60° C., high humidity of 92.5% RH) and accelerated conditions (40° C./75% RH) respectively. After 1 week and 2 weeks, the samples were removed for HPLC analysis to determine the content and related substances, thereby evaluating the chemical stability of crystal form II and crystal form III. The samples were also characterized by appearance, XRPD, and DSC to assess the physical stability of the two crystal forms. Additionally, samples of crystal form II and crystal form III were accurately weighed into 20 mL colorless transparent glass vials, which were tightly sealed and stored in a −20° C. freezer as standard samples for HPLC analysis.

[3] = XRPD re-characterization of the precipitated sample after days
Description: 20 mg of the compound represented by formula 1 was weighed into a glass vial, which was placed in a 50° C. water bath with a rotational speed of 400 rpm. 90 times the volume of ethyl acetate as good solvent was added to the vial, and the mixture was heated to obtain a clarified solution, which was maintained at the same temperature for 15 minutes. 70 times the volume of n-heptane as anti-solvent was slowly added dropwise thereto under stirring to precipitate a solid, and the mixture was stirred for another 10 minutes. A sample was taken and centrifuged, naturally dried, and characterized by XRPD as crystal form II.
Following the same operational procedure as in method 3, crystal form II was also obtained by using the good solvent and anti-solvent listed in the table below.
Method: An appropriate amount of sample was taken and spread evenly on a single-crystal silicon wafer, and XRPD testing was conducted at room temperature. The specific experimental parameters were as follows: the light source was CuKα, the X-ray intensity was 40 kV/40 mA, the scanning mode was Theta-theta, the scanning angle range was 4° to 40°, the step size was 0.05°, and the scanning speed was 0.5 seconds per step.

[4] = after 2 weeks under −20° C., high temperature, high humidity, light, and accelerated conditions

weight gain from 0% RH to 95% RH (moisture absorption) [1] [%] | Appearance ([2]; Accelerated (40° C./75%)) | Appearance ([2]; High humidity (92.5% RH)) | Appearance ([2]; High temperature (60° C.)) | chemical stability [2, 4] | Appearance ([2]; control group, −20° C.) | hygroscopicity (in words) ([1]; 0% RH to 95% RH) | physicochemical stability ([2]; −20° C., high temperature, high humidity, and accelerated conditions) | crystal form by XRPD after standing ([3]; after 6 days, good solvent / methyl tert-butyl ether) | crystal form by XRPD after standing ([3]; after 8 days, ethyl acetate / n-heptane) | Compound | physical stability (crystal form conversion) [2, 4]
0.4084 | Bright yellow | Bright yellow | Bright yellow | good chemical stability | Bright yellow | – | – | – | – | CCS(=O)(=O)N1CC(CC#N)(n2cc(-c3nc(Nc4cnn(C)c4)nc4ccsc34)cn2)C1 [Crystal form III] | partial conversion of crystal form III to crystal form II
0.1047 | Yellow | Yellow | Yellow | – | Yellow | almost no hygroscopicity | good physicochemical stability | remained as crystal form II | remained as crystal form II | CCS(=O)(=O)N1CC(CC#N)(n2cc(-c3nc(Nc4cnn(C)c4)nc4ccsc34)cn2)C1 [Crystal form II] | –
3.025 | – | – | – | – | – | – | – | – | – | CCS(=O)(=O)N1CC(CC#N)(n2cc(-c3nc(Nc4cnn(C)c4)nc4ccsc34)cn2)C1 [Crystal form I] | –
